This is an account of results in patent publication US20160120886A1, “PREVENTION, TREATMENT, AND AMELIORATION OF RADIATION INDUCED ENTERITIS” (priority 2004, published 2016).

The subject of data set [1] is radiation enteritis. To be noted: related 5-ASA drugs; cited from earlier work.
The subject of data set [2] is radiation enteritis. Description: Clinical trial of balsalazide to treat radiation enteritis. Format: in vivo, human. The conditions noted are these: patients on pelvic radiotherapy. The protocol:
Subjects included patients treated for FIGO stage IB2-IVA cervical cancer, AJCC Stage T1-3 MO prostate cancer, or biochemical failure after prostatectomy. Radiotherapy was delivered to the subjects in a 4-field technique to at least 40 Gy, and tumor dose was at least 64 Gy for prostate patients, and 75 Gy for cervical patients. Brachytherapy boost was permitted. Patients were given 2250 mg of BSZ or an Identical-appearing placebo twice daily beginning 5 days prior to radiotherapy, and continuing for 2 weeks after completion. Toxicities were graded weekly according to NCI Common Toxicity Criteria, for each of the following: proctitis, diarrhea, dysuria, weight loss, fatigue, nausea, and vomiting. A symptom index was formulated for each toxicity consisting of the toxicity's numeric grade multiplied by the number of days it was experienced, and summed for each grade. Thus, a patient with 7 days of grade 1 proctitis, 14 days of grade 2 proctitis, and 7 days of grade 3 proctitis [(1*7)+(2*14)+(3*7)] would have a proctitis index of 56. A higher Index indicates worse toxicity. Patients were randomized by sealed envelope decision, with only the protocol coordinator aware of the results of randomization. After randomization, the study drug or identical-appearing placebo was given to the study subject with instructions concerning dosage and administration schedule. As stated above, the toxicity was assessed weekly during the course of radiation treatment, then for a period of at least six months after completion of radiotherapy. National Cancer Institute (NCI) common toxicity criteria were used to grade the severity of radiation-induced acute bowel toxicity. Diarrhea was used as the primary endpoint and was assessed as follows: Grade 0—no diarrhea or increased stool frequency Grade 1—increase of 2-3 stools/day Grade 2—increase of 4-6 stools/day or nocturnal stool Grade 3—increase of 7-9 stools/day or incontinence Grade 4—increase of >10 stools/day or grossly bloody diarrhea Documented baseline hemorrhoidal bleeding was not considered grade 4. A secondary endpoint included proctitis, which was assessed using guidelines outlined by the NCI Common Toxicity Criteria, including: Grade 0—None Grade 1—Increased stool frequency, occasional blood-streaked stools or rectal discomfort, not requiring medication Grade 2—increased stool frequency, bleeding, mucous discharge or rectal discomfort requiring medication Grade 3—increased stool frequency/diarrhea requiring parenteral support, rectal bleeding requiring transfusion, or persistent mucus discharge necessitating the use of pads Grade 4—perforation, bleeding or necrosis, or other life-threatening complications requiring surgical intervention

The conditions of data set [3]: cited from earlier work.
For data set [4] the following is noted: cited from earlier work. This is another data set of the same source.
Setting [5] is: 2250 mg twice daily, versus placebo.

Turning to `O=C(O)c1cc(/N=N/c2ccc(O)c(C(=O)O)c2)ccc1O` [osalazine], the “outcome in clinical trials for radiation enteritis” value in data set [1] is recorded as “failure”.

Take `O=C(O)CCNC(=O)c1ccc(/N=N/c2ccc(O)c(C(=O)O)c2)cc1` [balsalazide]: the “proctitis mean index (symptom index: toxicity grade x days, summed)” value in data set [2] (2250 mg twice daily from 5 days prior to radiotherapy until 2 weeks after, vs. 77 in placebo (p=0.04), higher index = worse) was determined as 35. The same compound yielded a nausea/vomiting seen in data set [2] (2250 mg twice daily, 1 on placebo) of 2 patients. In addition, in data set [2] (2250 mg twice daily, 2 placebo patients did), the “patients experiencing grade 4 diarrhea” value is reported as “No patient”. This compound had a fatigue index in data set [2] (2250 mg twice daily, placebo averaged 49) of 20. Further, the average weight change result in data set [2] (2250 mg twice daily, placebo lost greater than 3 pounds) is reported as “gained weight”. Further, in data set [2] (setting [5]), the “all toxicities except nausea/vomiting” value is “appreciably lower” and the dysuria result is recorded as “appreciably lower”. Also, the “adverse events reported in trials (headache, nausea, diarrhea, flatulence, fatigue)” value in data set [3] (versus placebo) is “comparable to those seen in patients receiving placebo”.

Take `Nc1ccc(O)c(C(=O)O)c1` [mesalamine, 5-aminosalicylic acid]: in data set [1], the “outcome in clinical trials for radiation enteritis” value was “failure”.

Take `O=C(O)CCNC(=O)c1ccc(/N=N/c2ccc(O)c(C(=O)O)c2)cc1` [balsalazide disodium]: in data set [4], the water solubility entry is on record as “highly water-soluble”. In addition, the “abdominal pain (only statistically significant side effect), patients receiving the drug” value in data set [3] (versus 0% in those receiving placebo) is on record as 11%.
